One data set in a line: Aqueous stability. It is filed as physicochemical. To be noted: 100 mM citrate, pH5.0, 37° C, 50 μM. The procedure: Diluted solutions (50 μM) were incubated at 37° C. in a Fisher Scientific dry bath incubator (catalog # 11-718-2) with samples collected every 24 hours and stored at −80° C. Plasma samples (100 μL) were quenched with 1 mL of acetonitrile. […] Samples were resuspended in 120 μL of mobile phase buffer before HPLC injection.
Samples were analyzed on an HP1090 or HP1100 (Hewlett Packard) HPLC using a C-18 Alltech Econosphere column, 150 mm×4.6 mm (catalog # 70065), with a C-18 Alltech Econosphere guard column, 7.5 mm×4.6 mm (catalog # 96121). Samples were eluted with a methanol gradient: 0% for 5 minutes, then increasing to 10% at 10 minutes, 30% at 20 minutes, and 60% at 25 minutes. The column was allowed to equilibrate in 0% methanol for 10 minutes before the next injection. The flow rate was 1 mL/minute with a column temperature of 40° C. Prodrugs eluted around 19.5 minutes and were monitored by UV absorbance at 280 nm. For prodrugs in aqueous conditions, the same method was employed except the methanol gradient was as follows: 0% for 5 minutes, increasing to 10% at 10 minutes, and 30% at 20 minutes with prodrug eluting around 20 minutes.

A short description of a further data set: Solubility. In kind it is physicochemical. The procedure: With each of the three buffer systems, saturating solutions of Compound A and Compound B were prepared as follows. […] The resultant vials were sealed and equilibrated by tumbling at 25° C. for a minimum of 24 h. At the end of the incubation period, prodrug that was not in solution was removed from the samples by filtration through a 0.45 μm pore size nylon syringe filter. These diluted samples were assayed by the HPLC method of example E.

A short description of data set [1]: Rat acute toxicity, 24 hr continuous i.v. infusion. In kind it is in vivo. To be noted: rats, 2000 mg/kg/24 hrs continuous i.v. infusion. The method, then:
Male and female Simonsen rats were instrumented for continuous infusion as described in Example C. On the day of treatment, the rats were hooked up to the constant infusion tether and given free access to food and water. Three male and three female rats were treated Compound A at a dose of 2000 mg/kg/24 hrs using a flow rate of 2.08 ml/kg/hr. Compound A was dissolved at 42.5 mg/ml in water and the pH adjusted to 4 with 1M HCl. The osmolarity was adjusted to ˜300 mOsm using 5M NaCl. As a control, 2 male rats were infused with pH 4 saline for the same period of time. The appearance and disposition of the rats was monitored regularly and notes about their behavior recorded every 1-3 hrs during the working day.
The animals were anesthetized in a chamber supplied via a Fluotec 3 vaporizer with 5% isoflurane (Abbot Laboratories, NDC 0074-3292-02) in 100% oxygen at a flow rate of 1.5 to 2 liters per minute. […] The blood from each animal was divided between K2-EDTA-containing microtainer tubes (Becton Dickinson, 36/5974) and microtainer tubes with gel separators for serum (Becton Dickinson, 36/5956) and lithium heparin for plasma collection (Becton Dickinson, 36/5958). If possible, urine was removed from the bladder using a 23-gauge needle attached to a 3 cc syringe. Tissue samples were collected in the following order: liver, kidneys, small intestine, bladder and bone marrow. The small intestine was divided into three equal portions to represent samples from the duodenum, jejunum and ileum; fecal matter was manually removed by gentle sliding pressure using a blunt forceps. From each tissue, a portion was placed in 10% buffered formalin for histology.
For cell counting, […] of EDTA-treated blood or PBS-suspended bone marrow flush was mixed with 450 μL or 950 μL, respectively, nuclear staining solution containing 0.19 mg/mL crystal violet (Sigma # C-1658, lot 112H3660) in 1 M acetic acid, and incubated at room temperature for at least 5 min. After brief vortexing, a 10 μl aliquot of the mixture was placed in a hemocytometer and cells were counted using a Nikon Optiphot-2 microscope. The blood samples were counted under a 40× objective to evaluate the number of mononuclear cells (lymphocytes and monocytes) and polymorphonuclear cells (PMN, including granulocytes of the neutrophil, eosinophil and basophil type). Nucleated bone marrow cells were counted under a 10× objective.
EDTA-treated blood samples were submitted to LabCorp (San Diego, Calif.) for hematology analysis including erythrocyte and platelet numbers, hemoglobin, and hematocrit. Serum chemistry analysis was also performed by LabCorp. […]

In brackets after ≈: the same amount, converted by molar mass.

Consider `Nc1ccn([C@@H]2O[C@H](CO[P@@]3(=O)OCC[C@@H](c4ccncc4)O3)[C@@H](O)[C@@H]2O)c(=O)n1` [Compound A, 2(1H)-Pyrimidinone, 4-amino-1-[5-O-[(2R,4S)-2-oxido-4-(4-pyridinyl)-1,3,2-dioxaphosphorinan-2-yl]-β-D-arabinofuranosyl]], for which, in “Aqueous stability”, the “t90 in aqueous solution” value stood at 2 days. Besides, the solubility (commonly how much of the substance goes into solution per volume) stood at 2900 µg/mL (≈ 6.59 mM) in the data set “Solubility” (0.5 M Pi pH 8.0 buffer, 25° C); 45800 µg/mL (≈ 104 mM) in the data set “Solubility” (0.5 M citrate pH 4.0, 25° C); 2600 µg/mL (≈ 5.9 mM) in the data set “Solubility” (0.5 M citrate pH 7.0, 25° C). Further, the “serum chemistry and hematology parameters” value in data set [1] is recorded as “generally within normal ranges”. Further, the serum triglycerides levels result in data set [1] is “outside the normal range”. Also, in data set [1] (24 hr treatment), the overt toxicity entry was “no overt toxicity was noted”. For the same compound, in data set [1] (24 hrs), the tolerability entry is reported as “well tolerated”.

Values taken from patent US7553826B2, “Cytarabine monophosphate prodrugs” (Metabasis Therapeutics, Inc., priority 2002, dated 2009).
